How the values were obtained:
ETBR-GFP = experiment: Ca2+ flux, COS-7, ETBR-GFP co-transfected with other GPCRs; type: cell-based; settings: mock+sitaxentan vs mock+vehicle (no ETAR expression)
ETAR = settings: competitive antagonist; ref [36]; cited from earlier work
ETBR = settings: competitive antagonist; ref [36]; cited from earlier work
Cys-P1-tagged GPCR = experiment: peptide-templated labeling of Cys-P1-tagged GPCRs in live HEK293 cells; type: cell-based; settings: n=3; for fluorescent labeling: Cys-P1-ETAR-GFP, 200 nM probe
Cys-P3-tagged GPCR = experiment: peptide-templated labeling of Cys-P3-tagged GPCRs in live HEK293 cells; type: cell-based; settings: n=3; for fluorescent labeling: 200 nM probe

## Cc1cc2c(cc1CC(=O)c1sccc1S(=O)(=O)Nc1onc(C)c1Cl)OCO2 [sitaxentan]
ETBR-GFP
  effect on ET-1 efficacy and potency at ETBR: No differences in both ligand efficacy and potency
ETAR
  IC50: ~0.001 µM
ETBR
  IC50: ~10 µM

## KIAQLKE KNAALKE KNQQLKE KIQALKY [TAMRA‐P2, 6‐carboxytetramethyl‐rhodamine (TAMRA)‐P2]
Cys-P1-tagged GPCR
  fluorescent labeling: successfully labeled
Cys-P1-tagged GPCR; Cys-P1-ETBR-GFP
  labeling with complementary probe: Rapid TAMRA staining within 5 min
Cys-P3-tagged GPCR; Cys-P3-ETAR-GFP with non-complementary probe
  cross-reactivity labeling: no successful TAMRA labeling was detectable

## TAMRA‐MPAA‐GSGSG
Cys-P1-tagged GPCR
  fluorescent labeling: no labeling of GFP‐positive cells was detectable
Cys-P3-tagged GPCR; Cys-P3-ETAR-GFP
  fluorescent labeling: no labeling of GFP‐positive cells was detectable

## KIAQLKQ KIQALKQ ENQQLEE ENAALEY [TAMRA‐P4]
Cys-P1-tagged GPCR; Cys-P1-ETBR-GFP with non-complementary probe
  cross-reactivity labeling: no successful TAMRA labeling was detectable
Cys-P3-tagged GPCR; Cys-P3-ETAR-GFP
  fluorescent labeling: successfully labeled
  labeling with complementary probe: Rapid TAMRA staining within 5 min
